RP-LC retention time data for 33 compounds are collected here from the METLIN SMRT retention time set (Domingo-Almenara et al. 2019).

Structures are written as SMILES.

The nature of this series: gradient 5% acetonitrile 3 min, to 50% in 2 min, to 85% in 15 min, held 3 min, 100 µL/min. Particulars: column: Zorbax Extend-C18 2.1 x 50 mm; eluents: water / acetonitrile, 0.1% formic acid. An outline of the steps: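 Over 3 months, pure standards in mixtures of ~100 molecules were run by HPLC coupled to a quadrupole time-of-flight mass spectrometer in positive and negative ionization mode. The column was a Zorbax Extend-C18 (2.1 × 50 mm, 1.8 μm) at 100 μL/min, eluted with water and acetonitrile each holding 0.1% formic acid, with 40 μL dead and 900 μL dwell volumes. Retention time was determined from adduct peaks chosen by software and checked manually.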
Compound `COc1ccc2c(c1)C1(CCN(S(=O)(=O)c3ccc(C)cc3)C1)C(=O)N2` (stereo not drawn) registered an RP-LC retention time of 843 s.
The compound `Cc1cc(=O)n(CC(=O)NCCc2ccc(Cl)cc2)c(N2CCOCC2)n1` gave an RP-LC retention time of 701 s.
`CCC(C)NC(=O)c1c2c(cn(-c3ccc(F)cc3)c1=O)C(=O)CC(C)(C)C2` (stereo not drawn) registered an RP-LC retention time of 920 s.
For `Cc1cc(F)ccc1NC(=O)c1cnn2c1CCCC2` the value was 720 s.
The value for `Cc1nc2cccnc2n1CC1CCCN(C(=O)Nc2ccc3c(c2)OCCO3)C1` (stereo not drawn) was 614 s; that for `COc1ccc(N2C=C(C(=O)N3CCOCC3)S(=O)(=O)c3ccc(Cl)cc32)cc1Cl` was 886 s; that for `Cc1noc2nc(C)n(CC(=O)NC3CCCC3)c(=O)c12` was 678 s.
As to `COc1ccc(C2(C(=O)N3CC(n4c(C)cnc4-c4ccccc4)C3)CC2)cc1`, the RP-LC retention time is 661 s.
For `COc1cn(CC(=O)Nc2cccc([N+](=O)[O-])c2)c(CN2CCC(C)CC2)cc1=O` the value was 567 s; for `COc1cc(OC)c(NC(=O)N2CCN(CCn3c(C(C)C)nc4cccnc43)CC2)cc1Cl`, 618 s.
The value for `Cc1cccc2sc(NC(=O)C3(c4cccs4)CCOCC3)nc12` was 987 s; that for `Cc1nc(OCC(=O)NCc2ccc3c(c2)OCO3)c2ccccc2n1` was 698 s.
In turn, `CCOc1ccc(-c2nc(Cc3noc(-c4cccnc4)n3)c(C)o2)cc1` registered an RP-LC retention time of 967 s.
Compound `O=C(Cn1nc2c3cc(-c4ccc(F)cc4)nn3ccn2c1=O)Nc1ccc(F)cc1Cl` had an RP-LC retention time of 959 s.
For `COc1ccc(CC(=O)N2CCc3cc(-c4noc(C)n4)ccc32)cc1Cl` the value was 979 s; for `O=C(CCc1ccccc1)NCCn1c(C(F)(F)F)nc2cccnc21`, 998 s; for `O=C(c1csc(-c2ccc(N3CCCC3)nc2)n1)N1CCCC1`, 596 s.
In turn, `CCOc1ccccc1C(=O)Nc1ccc2c(c1)N(CCOC)CCC2` registered an RP-LC retention time of 1060 s.
Consider `Clc1ccc(OCc2nc(-c3ccc4c(c3)ncn4CCN3CCCC3)no2)cc1`, for which the RP-LC retention time amounted to 690 s.
The value for `O=C(Cc1nnc(-c2ccc3ncccc3c2)o1)NCc1ccc(Cl)cc1` was 721 s.
With `CCCS(=O)(=O)NCCS(=O)(=O)N1CCN(c2cccc(Cl)c2)CC1`, the RP-LC retention time is 867 s.
The compound `O=C(c1ccc(N2C(=O)CCS2(=O)=O)cc1Cl)N1CCN(c2ccccn2)CC1` had an RP-LC retention time of 583 s.
For `CC(C)c1nc2c(NC(=O)c3ccc(Br)o3)cccn2n1` the value was 908 s; for `COc1ccc(S(=O)(=O)Nc2ccc(-c3cn4ccc(C)nc4n3)cc2)cc1`, 656 s; for `CN(Cc1ccc(Cl)c(F)c1)C1CCc2nnc(C3CCOCC3)n2CC1` (stereo not drawn), 590 s.
In the case of `CC(C)Cc1noc(C2(F)CCN(S(=O)(=O)c3ccc(Cl)c(Cl)c3)CC2)n1`, the RP-LC retention time is 1300 s.
With `CCC(=O)Nc1nc(-c2ccc3c(c2)NC(=O)CO3)cs1`, the RP-LC retention time worked out at 704 s.
`Cc1ccc2ncn(C3CCN(C(=O)Nc4ccc(C)c(C)c4)CC3)c(=O)c2c1` gave an RP-LC retention time of 799 s.
As for `O=c1c2c(nc(SCc3ccccn3)n1CCc1ccccc1)CCS2`, the RP-LC retention time was 657 s.
In turn, `COc1cccc(NS(=O)(=O)c2cc3n(c2)CCN(C)C3=O)c1` returned an RP-LC retention time of 674 s.
Turning to `CC(C)C(=O)Nc1ccc(C2(C(=O)O)CCC2)cc1`, the RP-LC retention time is 720 s.
For `CC(NC(=O)C1C(=O)NC2(C)CC1c1ccccc1O2)c1ccccc1` (stereo not drawn) the value was 831 s; for `COc1ccc(-n2ccn3cc(-c4ccc5c(c4)OCO5)nc3c2=O)cc1OC`, 733 s.
